How the values were obtained:
A375 cells = experiment: A375 cell proliferation assay (1), resazurin, 96-well; assay type: cell-based; conditions: Homo sapiens, A-375, inhibition of cell proliferation
In short: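 Viability was read by resazurin fluorescence at 540 nm excitation and 600 nm emission, using a 440 μM solution added for 5–6 h at the end of culture. IC50 came from the curve fit.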

C-Raf kinase = biological target: T1, C-Raf kinase (Homo sapiens, UniProt P04049, Y340D/Y341D); experiment: Biochemical assay for C-Raf.1 (coupled pyruvate kinase/lactate dehydrogenase); conditions: read-out: CRAF.1 IC50
T1 construct: Y340D,; GST (N); purchased Sigma
In short: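 NADH depletion at 340 nm monitored continuously for 6 h at 30° C, with rates taken over 4–5 h. The coupled pyruvate kinase/lactate dehydrogenase reaction used 1 mM ATP, 30.1 nM MEK substrate and 0.43 nM kinase at pH 7.5. IC50 was fitted sigmoidally from percent inhibition of serially diluted compound.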

A-Raf kinase = biological target: T2, A-Raf kinase (Homo sapiens, UniProt P10398, Y301D/Y302D); experiment: Biochemical assay for A-Raf.1 (coupled pyruvate kinase/lactate dehydrogenase); conditions: read-out: ARAF.1 IC50
T2 construct: purchased Sigma
In short: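 IC50 values came from four-parameter sigmoidal fits of percent inhibition, using rates over the 4 to 5 h window of continuous A340 readings (6 h, 30° C). The coupled PK/LDH system tracked NADH oxidation during 5.55 nM A-Raf activity on 30.1 nM MEK at 1 mM ATP, buffer pH 7.5.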

H2405 cells = experiment: H2405 cell proliferation assay (1), resazurin, 96-well; assay type: cell-based; conditions: Homo sapiens, NCI-H2405, inhibition of cell proliferation
Protocol: H2405 Cell Proliferation Assay (1)
H2405 cells (catalog #CRL-5944) are obtained from the American Type Culture Collect (ATTC, Manassas, VA). Briefly, cells were grown in RPMI 1640 supplemented with 5% characterized fetal bovine serum (Invitrogen, Carlsbad, CA) and 1% Penicillin/Streptomycin/L-Glutamine at 37° C., 5% CO2, and 95% humidity. Cells are expanded until reaching 70-95% confluency at which point they are subcultured or harvested for assay use. A serial dilution of test compound is dispensed into a 96-well black clear bottom plate in triplicate. Three thousand cells are added per well in 200 μL complete growth medium in the 96-well plate. Plates are incubated for 67-72 hours at 37° C., 5% CO2, and 95% humidity. At the end of the incubation, 40 μL of a 440 μM solution of resazurin (Sigma, St. Louis, MO) in PBS is added to each well of the plate and plates are incubated for an additional 5-6 hours at 37° C., 5% CO2, and 95% humidity. Plates are read on a Synergy2 or equivalent reader (Biotek, Winooski VT) using an excitation of 540 nm and an emission of 600 nm. Data is analyzed using Prism software (GraphPad, San Diego, CA) to calculate IC50 values.

T1 sequence (P04049 307-648 Y340D/Y341D): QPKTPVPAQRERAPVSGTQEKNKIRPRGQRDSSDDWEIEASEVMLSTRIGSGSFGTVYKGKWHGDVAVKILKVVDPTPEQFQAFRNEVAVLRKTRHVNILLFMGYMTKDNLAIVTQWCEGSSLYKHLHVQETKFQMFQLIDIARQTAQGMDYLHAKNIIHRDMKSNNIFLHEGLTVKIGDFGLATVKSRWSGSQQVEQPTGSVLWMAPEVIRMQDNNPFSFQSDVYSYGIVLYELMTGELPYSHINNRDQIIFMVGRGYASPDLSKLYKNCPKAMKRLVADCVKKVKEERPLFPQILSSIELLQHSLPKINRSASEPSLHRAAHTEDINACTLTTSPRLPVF
T2 sequence (P10398 with tags, fused parts or gaps Y301D/Y302D): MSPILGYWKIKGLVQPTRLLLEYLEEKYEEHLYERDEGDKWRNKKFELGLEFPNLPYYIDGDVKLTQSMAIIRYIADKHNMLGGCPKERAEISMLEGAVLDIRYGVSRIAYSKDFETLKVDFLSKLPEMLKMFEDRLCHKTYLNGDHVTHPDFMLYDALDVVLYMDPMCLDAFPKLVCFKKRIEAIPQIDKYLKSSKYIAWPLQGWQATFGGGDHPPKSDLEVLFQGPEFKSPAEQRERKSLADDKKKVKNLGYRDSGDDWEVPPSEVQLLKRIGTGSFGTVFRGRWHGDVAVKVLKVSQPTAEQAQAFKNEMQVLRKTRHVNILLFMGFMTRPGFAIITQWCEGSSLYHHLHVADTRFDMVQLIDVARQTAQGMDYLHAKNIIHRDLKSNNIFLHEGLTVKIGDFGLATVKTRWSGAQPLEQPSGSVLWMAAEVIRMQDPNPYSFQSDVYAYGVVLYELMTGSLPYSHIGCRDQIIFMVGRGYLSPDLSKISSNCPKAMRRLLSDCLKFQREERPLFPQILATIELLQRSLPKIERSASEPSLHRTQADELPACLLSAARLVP

Structure (SMILES)	IC50 (A375 cells) [µM]	IC50 (C-Raf kinase) [µM]	IC50 (A-Raf kinase) [µM]	IC50 (H2405 cells) [µM]
COC(=O)Nc1cc(-c2cccc(-c3cc(NC(=O)NCCC4(OC)CC4)cnc3C)c2)ncn1 [Example 138]	1 to 10	≤ 0.1	> 1	1 to 10
Cc1ncc(NC(=O)NCCC(C)(C)C)cc1-c1cc(-c2ccnc(NC(=O)C3CC3)c2)cnn1 [Example 120]	1 to 10	≤ 0.1	> 1	1 to 10
COC(=O)Nc1cc(-c2nc(OCCO)cc(-c3cc(NC(=O)NC4CC(C)(C)C4)c(F)cc3C)n2)ccn1 [Example 158]	≤ 0.1	≤ 0.1	> 1	≤ 0.1
Cc1cc(F)c(NC(=O)NCCC(C)(C)F)cc1-c1cc(-c2ccnc(NC(=O)C3CC3)c2)cnn1 [Example 139]	1 to 10	≤ 0.1	> 1	0.5 to 1
COC(C)(C)CCNC(=O)Nc1cc(-c2ccnc(-c3ccnc(NC(=O)C4CC4)c3)c2)c(F)cc1F [Example 162]	1 to 10	≤ 0.1	> 1	1 to 10
Cc1ccc(NC(=O)NCCC(C)(C)C)cc1-c1cc(N2CCOCC2)nc(N2CCOCC2)c1 [Example 4]	0.5 to 1	≤ 0.1	> 1	0.1 to 0.5
COC(=O)Nc1cc(-c2cc(-c3cc(NC(=O)NCCC(C)(C)F)cnc3C)cc(OCCO)n2)ccn1 [Example 165]	1 to 10	≤ 0.1	> 1	0.1 to 0.5
Cc1ncc(NC(=O)NCCN2CCC2)cc1-c1cc(OCCO)nc(-c2ccnc(NC(=O)C3CC3)c2)c1 [Example 172]	1 to 10	> 1	> 1	1 to 10
COC1(CCNC(=O)Nc2cc(-c3cccc(-c4cc(NC(=O)C5CC5)ncn4)c3)c(C)cc2F)CC1 [Example 104]	1 to 10	≤ 0.1	0.1 to 0.5	0.1 to 0.5
Cc1cc(F)c(NC(=O)NCCC(C)(C)F)cc1-c1ccnc(-c2ccnc(NC(=O)C3CC3)c2)c1 [Example 159]	1 to 10	≤ 0.1	0.5 to 1	0.1 to 0.5
COC(=O)Nc1cc(-c2cnnc(-c3cc(NC(=O)N4CCC(CC(F)(F)F)C4)c(F)cc3C)c2)ccn1 (stereo not shown) [Example 150]	1 to 10	≤ 0.1	> 1	0.5 to 1
Cc1cc(F)c(NC(=O)NCCC(C)(C)F)cc1-c1ccnc(-c2ccnc(NC(=O)C3CC3)c2)n1 [Example 128]	1 to 10	≤ 0.1	0.1 to 0.5	1 to 10
COC(=O)Nc1cc(-c2nccc(-c3cc(NC(=O)NCCC4(OC)CC4)cnc3C)n2)ccn1 [Example 143]	1 to 10	0.1 to 0.5	> 1	1 to 10
COC(C)(C)CCNC(=O)Nc1cc(-c2cc(-c3ccnc(NC(=O)C4CC4)c3)cnn2)c(C)cc1F [Example 142]	1 to 10	≤ 0.1	> 1	0.5 to 1
COC[C@H]1CCN(C(=O)Nc2cc(-c3cc(-c4ccnc(NC(=O)OC)c4)cnn3)c(C)cc2F)C1 [Example 148]	1 to 10	0.5 to 1	> 1	1 to 10

The next lines start with the values.

IC50 (A375 cells) [µM]	IC50 (C-Raf kinase) [µM]	IC50 (A-Raf kinase) [µM]	IC50 (H2405 cells) [µM]	Structure (SMILES)
1 to 10	≤ 0.1	> 1	0.5 to 1	COC(=O)Nc1cc(-c2cc(-c3cc(NC(=O)N4CCC(C)(C)CC4)cnc3C)cc(OCCO)n2)ccn1 [Example 166]
≤ 0.1	≤ 0.1	0.5 to 1	≤ 0.1	Cc1cc(F)c(NC(=O)NC2CC(C)(C)C2)cc1-c1cc(OCCO)nc(-c2ccnc(NC(=O)C3CC3)c2)n1 [Example 167]
0.1 to 0.5	≤ 0.1	> 1	0.5 to 1	Cc1cc(F)c(NC(=O)NCCC(C)(C)C)cc1-c1cc(N2CCOCC2)nc(N2CCOCC2)c1 [Example 10]
≤ 0.1	≤ 0.1	0.1 to 0.5	0.1 to 0.5	Cc1cc(F)c(NC(=O)NCCC(C)(C)C)cc1-c1cc(-c2ccnc(NC(=O)C3CC3)c2)cnn1 [Example 131]
1 to 10	≤ 0.1	> 1	0.1 to 0.5	Cc1ncc(NC(=O)NCCC2(C)CC2)cc1-c1ccnc(-c2ccnc(NC(=O)C3(C#N)CC3)c2)c1 [Example 169]
1 to 10	≤ 0.1	> 1	1 to 10	Cc1cc(F)c(NC(=O)NCC23CC(F)(C2)C3)cc1-c1cc(OCCO)nc(-c2ccnc3[nH]ncc23)c1 [Example 111]
1 to 10	0.1 to 0.5	> 1	1 to 10	Cc1cc(F)c(NC(=O)NCCC2(C)COC2)cc1-c1cc(OCCO)nc(-c2ccnc3[nH]ncc23)c1 [Example 110]
1 to 10	≤ 0.1	> 1	1 to 10	COC1(CCNC(=O)Nc2cnc(C)c(-c3ccnc(-c4ccnc(NC(=O)C5CC5)c4)n3)c2)CC1 [Example 137]
1 to 10	≤ 0.1	> 1	0.1 to 0.5	COC(=O)Nc1cc(-c2cc(-c3cc(NC(=O)NC4CC(C)(C)C4)cnc3C)cc(OCCO)n2)ccn1 [Example 156]
1 to 10	≤ 0.1	> 1	≤ 0.1	Cc1cc(F)c(NC(=O)NCCC(C)(C)C)cc1-c1cc(OCCO)nc(C2=CCOCC2)c1 [Example 7]
1 to 10	> 1	> 1	1 to 10	CNC(=O)c1cc(-c2cnnc(-c3cc(NC(=O)NCCC(C)(C)OC)cnc3C)c2)ccn1 [Example 154]
1 to 10	≤ 0.1	> 1	0.5 to 1	Cc1ncc(NC(=O)NCCC2(C)CC2)cc1-c1ccnc(-c2ccnc(NC(=O)C3CC3)c2)c1 [Example 118]
1 to 10	≤ 0.1	> 1	0.5 to 1	COC(=O)Nc1cc(-c2cc(-c3cc(NC(=O)NCCC4(OC)CC4)c(F)cc3C)ccn2)ccn1 [Example 145]
1 to 10	0.5 to 1	> 1	1 to 10	COC[C@@H]1CCN(C(=O)Nc2cc(-c3cc(-c4ccnc(NC(=O)OC)c4)cnn3)c(C)cc2F)C1 [Example 149]
1 to 10	0.1 to 0.5	> 1	1 to 10	CNC(=O)c1cc(-c2cnnc(-c3cc(NC(=O)NCCC(C)(C)C)c(F)cc3C)c2)ccn1 [Example 119]
0.5 to 1	≤ 0.1	0.5 to 1	0.5 to 1	Cc1ncc(NC(=O)NCCC2(C)CC2)cc1-c1cc(OCCO)nc(-c2ccnc(NC(=O)C3CC3)c2)n1 [Example 133]
1 to 10	≤ 0.1	> 1	1 to 10	COC(=O)Nc1cc(-c2cc(-c3cc(NC(=O)NCCC4(C)CC4)cnc3C)ccn2)ccn1 [Example 103]
1 to 10	≤ 0.1	> 1	0.5 to 1	Cc1cc(F)c(NC(=O)NCCC(C)(C)F)cc1-c1cc(OCCO)nc(-c2ccnc3[nH]ccc23)c1 [Example 97]
1 to 10	≤ 0.1	0.5 to 1	0.1 to 0.5	Cc1cc(F)c(NC(=O)NCC(C)C)cc1-c1cc(OCCO)nc(-c2ccnc(NC(=O)C3CC3)c2)c1 [Example 99]
